Source: patent US20140249135A1, “PIM KINASE INHIBITORS AND METHODS OF THEIR USE” (NOVARTIS AG, priority 2007, published 2014)

Tests used:
Assay type in all cases: biochemical
Pim1 kinase = Pim1 kinase (Homo sapiens, UniProt P11309); assay: Pim1 ATP depletion assay; details: Pim1 ATP depletion assay; read-out: IC50 (μM) PIM1;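 note: Luciferase-luciferin luminescence readout of residual ATP after PIM1 transfers phosphate to a peptide substrate, 40 µM ATP added, reaction run to roughly half ATP consumption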
Pim2 kinase = Pim2 kinase (Homo sapiens, UniProt Q9P1W9); assay: Pim2 ATP depletion assay; details: read-out: IC50 (μM) PIM2;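 note: Luciferase-based luminescent readout of ATP remaining after PIM2 phosphorylates a BAD peptide, final 5 nM enzyme, 4 µM ATP, 10 µM peptide, 2.5% DMSO, run to roughly half ATP consumption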
Pim3 kinase = Pim3 kinase (Homo sapiens, UniProt Q86V86); assay: Pim3 ATP depletion assay; details: read-out: IC50 (μM) PIM3

Measured: IC50

Chain of Pim2 kinase (Q9P1W9 whole entry): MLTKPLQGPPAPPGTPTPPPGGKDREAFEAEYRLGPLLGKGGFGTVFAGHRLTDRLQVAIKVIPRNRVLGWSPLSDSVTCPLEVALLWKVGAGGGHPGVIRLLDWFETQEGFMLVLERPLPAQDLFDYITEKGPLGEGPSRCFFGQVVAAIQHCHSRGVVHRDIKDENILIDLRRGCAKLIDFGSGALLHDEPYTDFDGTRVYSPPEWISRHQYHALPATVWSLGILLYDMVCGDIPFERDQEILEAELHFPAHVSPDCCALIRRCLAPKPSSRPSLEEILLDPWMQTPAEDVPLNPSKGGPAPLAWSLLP
Chain of Pim1 kinase (P11309 whole entry): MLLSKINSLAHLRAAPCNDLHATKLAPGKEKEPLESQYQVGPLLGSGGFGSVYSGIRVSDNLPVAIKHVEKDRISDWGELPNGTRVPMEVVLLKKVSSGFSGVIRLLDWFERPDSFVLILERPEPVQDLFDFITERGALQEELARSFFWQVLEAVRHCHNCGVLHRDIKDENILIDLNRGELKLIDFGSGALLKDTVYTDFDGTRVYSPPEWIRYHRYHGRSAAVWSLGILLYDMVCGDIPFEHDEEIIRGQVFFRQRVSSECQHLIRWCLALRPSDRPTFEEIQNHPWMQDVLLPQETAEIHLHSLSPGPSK

Cc1ccncc1-c1ccc(N)c(C(=O)Nc2cnccc2N2CCC[C@H](N)C2)n1 [Example 472, 5-Amino-4′-methyl-[2,3′]bi-pyridinyl-6-carboxylic acid (3-amino-3,4,5,6-tetrahydro-2H-[1,4′]bipyridinyl-3′-yl)-amide]
< 1 µM: all assays above

Nc1ccc(-c2ccc(-c3ccccc3)cc2)nc1C(=O)Nc1cnccc1N1CCC[C@H](N)C1 [Example 473, 3-Amino-6-biphenyl-4-yl-pyridine-2-carboxylic acid (3-amino-3,4,5,6-tetrahydro-2H-[1,4′]bipyridinyl-3′-yl)-amide]
< 1 µM: all assays above

Nc1ccc(-c2sccc2Cl)nc1C(=O)Nc1cnccc1N1CCC[C@H](N)C1 [Example 474, 3-Amino-6-(3-chloro-thiophen-2-yl)-pyridine-2-carboxylic acid (3-amino-3,4,5,6-tetrahydro-2H-[1,4′]bipyridinyl-3′-yl)-amide]
< 1 µM: all assays above

Nc1ccc(-c2cccs2)nc1C(=O)Nc1cnccc1N1CCC[C@H](N)C1 [Example 475, 3-Amino-6-thiophen-2-yl-pyridine-2-carboxylic acid (3-amino-3,4,5,6-tetrahydro-2H-[1,4′]bipyridinyl-3′-yl)-amide]
< 1 µM: all assays above

Cc1ccc(-c2ccc(N)c(C(=O)Nc3cnccc3N3CCC[C@H](N)C3)n2)c(F)n1 [Example 476, 5-Amino-2′-fluoro-6′-methyl-[2,3′]bipyridinyl-6-carboxylic acid (3-amino-3,4,5,6-tetrahydro-2H-[1,4′]bipyridinyl-3′-yl)-amide]
< 1 µM: all assays above

COc1cc(F)c(-c2ccc(N)c(C(=O)Nc3cnccc3N3CCC[C@H](N)C3)n2)cc1F [Example 477, 3-Amino-6-(2,5-difluoro-4-methoxy-phenyl)-pyridine-2-carboxylic acid (3-amino-3,4,5,6-tetrahydro-2H-[1,4′]bipyridinyl-3′-yl)-amide]
< 1 µM: all assays above

Cc1cc(F)c(-c2ccc(N)c(C(=O)Nc3cnccc3N3CCC[C@H](N)C3)n2)cc1Cl [Example 478, 3-Amino-6-(5-chloro-2-fluoro-4-methyl-phenyl)-pyridine-2-carboxylic acid (3-amino-3,4,5,6-tetrahydro-2H-[1,4′]bipyridinyl-3′-yl)-amide]
< 1 µM: all assays above

Nc1ccc(-c2cccc(Cl)c2F)nc1C(=O)Nc1cnccc1N1CCC[C@H](N)C1 [Example 479, 3-Amino-6-(3-chloro-2-fluoro-phenyl)-pyridine-2-carboxylic acid (3-amino-3,4,5,6-tetrahydro-2H-[1,4′]bipyridinyl-3′-yl)-amide]
< 1 µM: all assays above

Nc1ccc(-c2ccc(S(N)(=O)=O)cc2)nc1C(=O)Nc1cnccc1N1CCC[C@H](N)C1 [Example 480, 3-Amino-6-(4-sulfamoyl-phenyl)-pyridine-2-carboxylic acid (3-amino-3,4,5,6-tetrahydro-2H-[1,4′]bipyridinyl-3′-yl)-amide]
< 1 µM: all assays above

Nc1ccc(-c2cccc(S(N)(=O)=O)c2)nc1C(=O)Nc1cnccc1N1CCC[C@H](N)C1 [Example 481, 3-Amino-6-(3-sulfamoyl-phenyl)-pyridine-2-carboxylic acid (3-amino-3,4,5,6-tetrahydro-2H-[1,4′]bipyridinyl-3′-yl)-amide]
< 1 µM: all assays above

Nc1ncc(-c2ccc(N)c(C(=O)Nc3cnccc3N3CCC[C@H](N)C3)n2)c(C(F)(F)F)n1 [Example 486, 3-Amino-6-(2-amino-4-trifluoromethyl-pyrimidin-5-yl)-pyridine-2-carboxylic acid (3-amino-3,4,5,6-tetrahydro-2H-[1,4′]bipyridinyl-3′-yl)-amide]
< 1 µM: all assays above

CC(C)Oc1ccc(F)c(-c2ccc(N)c(C(=O)Nc3cnccc3N3CCC[C@H](N)C3)n2)c1F [Example 488, 3-Amino-6-(2,6-difIuoro-3-isopropoxy-phenyl)-pyridine-2-carboxylic acid (3-amino-3,4,5,6-tetrahydro-2H-[1,4′]bipyridinyl-3′-yl)-amide]
< 1 µM: all assays above

Cc1cscc1-c1ccc(N)c(C(=O)Nc2cnccc2N2CCC[C@H](N)C2)n1 [Example 489, 3-Amino-6-(4-methyl-thiophen-3-yl)-pyridine-2-carboxylic acid (3-amino-3,4,5,6-tetrahydro-2H-[1,4′]bipyridinyl-3′-yl)-amide]
< 1 µM: all assays above

N#Cc1ccsc1-c1ccc(N)c(C(=O)Nc2cnccc2N2CCC[C@H](N)C2)n1 [Example 490, 3-Amino-6-(3-cyano-thiophen-2-yl)-pyridine-2-carboxylic acid (3-amino-3,4,5,6-tetrahydro-2H-[1,4′]bipyridinyl-3′-yl)-amide]
< 1 µM: all assays above

CCOc1ccc(F)c(-c2ccc(N)c(C(=O)Nc3cnccc3N3CCC[C@H](N)C3)n2)c1F [Example 492, 3-Amino-6-(3-ethoxy-2,6-difluoro-phenyl)-pyridine-2-carboxylic acid (3-amino-3,4,5,6-tetrahydro-2H-[1,4′]bipyridinyl-3′-yl)-amide]
< 1 µM: all assays above

COc1ccc(F)c(-c2ccc(N)c(C(=O)Nc3cnccc3N3CCC[C@H](N)C3)n2)c1F [Example 493, 3-Amino-6-(2,6-difluoro-3-methoxy-phenyl)-pyridine-2-carboxylic acid (3-amino-3,4,5,6-tetrahydro-2H-[1,4′]bipyridinyl-3′-yl)-amide]
< 1 µM: all assays above

CCOc1ccc(F)c(-c2nc(C(=O)Nc3cnccc3N3CCC[C@H](N)C3)c(N)cc2F)c1F [Example 495, 3-Amino-6-(3-ethoxy-2,6-difluoro-phenyl)-5-fluoro-pyridine-2-carboxylic acid (3-amino-3,4,5,6-tetrahydro-2H-[1,4′]bipyridinyl-3′-yl)-amide]
< 1 µM: all assays above

Nc1cc(F)c(-c2cccc(S(N)(=O)=O)c2)nc1C(=O)Nc1cnccc1N1CCC[C@H](N)C1 [Example 497, 3-Amino-5-fluoro-6-(3-sulfamoyl-phenyl)-pyridine-2-carboxylic acid (3-amino-3,4,5,6-tetrahydro-2H-[1,4′]bipyridinyl-3′-yl)-amide]
< 1 µM: all assays above

CS(=O)(=O)Nc1cccc(-c2nc(C(=O)Nc3cnccc3N3CCC[C@H](N)C3)c(N)cc2F)c1 [Example 498, 3-Amino-5-fluoro-6-(3-methanesulfonylamino-phenyl)-pyridine-2-carboxylic acid (3-amino-3,4,5,6-tetrahydro-2H-[1,4′]bipyridinyl-3′-yl)-amide]
< 1 µM: all assays above

Nc1cc(F)c(-c2ccccc2)nc1C(=O)Nc1cnccc1N1CCC[C@H](N)C1 [Example 499, 3-Amino-5-fluoro-6-phenyl-pyridine-2-carboxylic acid (3-amino-3,4,5,6-tetrahydro-2H-[1,4′]bipyridinyl-3′-yl)-amide]
< 1 µM: all assays above

CC(=O)Nc1cccc(-c2nc(C(=O)Nc3cnccc3N3CCC[C@H](N)C3)c(N)cc2F)c1 [Example 500, 6-(3-Acetylamino-phenyl)-3-amino-5-fluoro-pyridine-2-carboxylic acid (3-amino-3,4,5,6-tetrahydro-2H-[1,4′]bipyridinyl-3′-yl)-amide]
< 1 µM: all assays above

COc1ccc(F)cc1-c1nc(C(=O)Nc2cnccc2N2CCC[C@H](N)C2)c(N)cc1F [Example 501, 3-Amino-5-fluoro-6-(5-fluoro-2-methoxy-phenyl)-pyridine-2-carboxylic acid (3-amino-3,4,5,6-tetrahydro-2H-[1,4′]bipyridinyl-3′-yl)-amide]
< 1 µM: all assays above

COc1ccc(F)c(-c2nc(C(=O)Nc3cnccc3N3CCC[C@H](N)C3)c(N)cc2F)c1 [Example 502, 3-Amino-5-fluoro-6-(2-fluoro-5-methoxy-phenyl)-pyridine-2-carboxylic acid (3-amino-3,4,5,6-tetrahydro-2H-[1,4′]bipyridinyl-3′-yl)-amide]
< 1 µM: all assays above

CC(C)NC(=O)c1ccc(F)c(-c2ccc(N)c(C(=O)Nc3cnccc3N3CCC[C@H](N)C3)n2)c1F [Example 503, 3-Amino-6-(2,6-difluoro-3-isopropylcarbamoyl-phenyl)-pyridine-2-carboxylic acid (3-amino-3,4,5,6-tetrahydro-2H-[1,4′]bipyridinyl-3′-yl)-amide]
< 1 µM: all assays above
